Results: patent US6664231B1, “Anti-fungal peptides” (priority 1993, dated 2003)
Square brackets hold non-standard residues; d marks the D form. Peptide text beside a SMILES is read from it. Phe(4-NH2) = Nc1ccc(C[C@H](N)C(=O)O)cc1; NMeL = CN[C@@H](CC(C)C)C(=O)O; NMeV = CN[C@H](C(=O)O)C(C)C; Dab = NCC[C@H](N)C(=O)O; Sar = CNCC(=O)O

test system: C. albicans (CA-1, Strain SLU-1); experiment: Radial diffusion assay; assay type: cell-based, Candida albicans; details: pmoles of peptide added to well to achieve a 30 mm^2 zone, PROBIT analysis; crude or purified (P′) peptide
Outline: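 Yeast at 1×10^6 CFU/mL in agarose underlayer (3% Sabouraud, 10 mM sodium phosphate pH 7.4); 2-fold peptide dilutions in D-PBS from ~1 mg/mL loaded into wells, 3 h at 37° C, then nutrient overlayer overnight. Value: pmol/well giving 30 mm^2 net clear zone, by PROBIT regression.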

| Molecule | C. albicans pmol/30 mm^2 zone |
| --- | --- |
| CC[C@H](C)[C@H](NC(=O)[C@H](CC(C)C)NC(=O)CN(C)C(=O)CNC(=O)[C@@H](NC(=O)[C@H](CCCCN)NC(=O)[C@H](CO)NC(=O)[C@@H](N)CCCCN)C(C)C)C(=O)N[C@@H](CCC(N)=O)C(=O)N[C@@H](CC(C)C)C(=O)N[C@@H](Cc1ccccc1)C(=O)N[C@@H](Cc1c[nH]cn1)C(=O)N[C@@H](CCCCN)C(=O)N[C@@H](CCCCN)C(N)=O [XMP.259] (H-KSKVG[Sar]LIQLFHKK-NH2) | 2,117 pmol/30 mm^2 zone |
| CC[C@H](C)[C@H](NC(=O)[C@H](CC(C)C)NC(=O)[C@H](C(C)C)N(C)C(=O)CNC(=O)[C@@H](NC(=O)[C@H](CCCCN)NC(=O)[C@H](CO)NC(=O)[C@@H](N)CCCCN)C(C)C)C(=O)N[C@@H](CCC(N)=O)C(=O)N[C@@H](CC(C)C)C(=O)N[C@@H](Cc1ccccc1)C(=O)N[C@@H](Cc1c[nH]cn1)C(=O)N[C@@H](CCCCN)C(=O)N[C@@H](CCCCN)C(N)=O [XMP.260] (H-KSKVG[NMeV]LIQLFHKK-NH2) | 742 pmol/30 mm^2 zone |
| CC[C@H](C)[C@H](NC(=O)[C@H](CC(C)C)NC(=O)[C@H](CC(C)C)N(C)C(=O)CNC(=O)[C@@H](NC(=O)[C@H](CCCCN)NC(=O)[C@H](CO)NC(=O)[C@@H](N)CCCCN)C(C)C)C(=O)N[C@@H](CCC(N)=O)C(=O)N[C@@H](CC(C)C)C(=O)N[C@@H](Cc1ccccc1)C(=O)N[C@@H](Cc1c[nH]cn1)C(=O)N[C@@H](CCCCN)C(=O)N[C@@H](CCCCN)C(N)=O [XMP.261] (H-KSKVG[NMeL]LIQLFHKK-NH2) | 867 pmol/30 mm^2 zone |
| CC[C@H](C)[C@H](NC(=O)[C@H](CC(C)C)NC(=O)[C@H](Cc1c[nH]c2ccccc12)NC(=O)[C@@H](N)CCCCN)C(=O)N[C@@H](CCC(N)=O)C(=O)N[C@@H](CC(C)C)C(=O)N[C@@H](Cc1ccccc1)C(=O)N[C@@H](Cc1c[nH]cn1)C(=O)N[C@@H](CCCCN)C(=O)N[C@@H](CCCCN)C(N)=O [XMP.293] | 1,156 pmol/30 mm^2 zone |
| CC[C@H](C)[C@H](NC(=O)[C@H](CC(C)C)NC(=O)[C@H](Cc1c[nH]c2ccccc12)NC(=O)[C@@H](N)CCCCN)C(=O)N[C@@H](CCC(N)=O)C(=O)N[C@@H](CC(C)C)C(=O)N[C@@H](Cc1ccccc1)C(=O)N[C@@H](Cc1c[nH]cn1)C(=O)N[C@@H](CCCCN)C(N)=O [XMP.297] | 1,817 pmol/30 mm^2 zone |
| CC[C@H](C)[C@H](NC(=O)[C@H](CC(C)C)NC(=O)[C@@H](N)Cc1c[nH]c2ccccc12)C(=O)N[C@@H](CCC(N)=O)C(=O)N[C@@H](CC(C)C)C(=O)N[C@@H](Cc1ccccc1)C(=O)N[C@@H](Cc1c[nH]cn1)C(=O)N[C@@H](CCCCN)C(=O)N[C@@H](CCCCN)C(N)=O [XMP.298] | 2,628 pmol/30 mm^2 zone |
| CC[C@H](C)[C@H](NC(=O)[C@H](CC(C)C)NC(=O)[C@@H](N)Cc1c[nH]c2ccccc12)C(=O)N[C@@H](CCC(N)=O)C(=O)N[C@@H](CC(C)C)C(=O)N[C@@H](Cc1ccccc1)C(=O)N[C@@H](Cc1c[nH]cn1)C(=O)N[C@@H](CCCCN)C(N)=O [XMP.303] | >4,694 pmol/30 mm^2 zone |
| CC[C@H](C)[C@H](NC(=O)[C@H](CC(C)C)NC(=O)[C@H](Cc1c[nH]c2ccccc12)NC(=O)[C@@H](N)CCCCN)C(=O)N[C@@H](CCC(N)=O)C(=O)N[C@@H](CC(C)C)C(=O)N[C@@H](CCCCN)C(N)=O [XMP.323] | >4,627 pmol/30 mm^2 zone |
| CC[C@H](C)[C@H](NC(=O)[C@H](CC(C)C)NC(=O)[C@H](Cc1c[nH]c2ccccc12)NC(=O)[C@@H](N)CCCCN)C(=O)N[C@@H](CCC(N)=O)C(=O)N[C@@H](CC(C)C)C(=O)N[C@@H](CCCCN)C(=O)N[C@@H](CCCCN)C(N)=O [XMP.324] | 894 pmol/30 mm^2 zone |
| CC[C@H](C)[C@H](NC(=O)[C@H](CC(C)C)NC(=O)[C@H](Cc1c[nH]c2ccccc12)NC(=O)[C@H](CCCCN)NC(=O)[C@@H](N)CCCCN)C(=O)N[C@@H](CCC(N)=O)C(=O)N[C@@H](CC(C)C)C(=O)N[C@@H](CCCCN)C(N)=O [XMP.326] | 2,182 pmol/30 mm^2 zone |
| CC[C@H](C)[C@H](NC(=O)[C@H](CC(C)C)NC(=O)[C@H](Cc1c[nH]c2ccccc12)NC(=O)[C@H](CCN)NC(=O)[C@@H](N)CCN)C(=O)N[C@@H](CCC(N)=O)C(=O)N[C@@H](CC(C)C)C(=O)N[C@@H](CCN)C(=O)N[C@@H](CCN)C(N)=O [XMP.339] (H-[Dab][Dab]WLIQL[Dab][Dab]-NH2) | 2,878 pmol/30 mm^2 zone |
| CC[C@H](C)[C@H](NC(=O)[C@H](CC(C)C)NC(=O)[C@H](Cc1c[nH]c2ccccc12)NC(=O)[C@H](Cc1ccc(N)cc1)NC(=O)[C@@H](N)Cc1ccc(N)cc1)C(=O)N[C@@H](CCC(N)=O)C(=O)N[C@@H](CC(C)C)C(=O)N[C@@H](Cc1ccc(N)cc1)C(=O)N[C@@H](Cc1ccc(N)cc1)C(N)=O [XMP.340] (H-[Phe(4-NH2)][Phe(4-NH2)]WLIQL[Phe(4-NH2)][Phe(4-NH2)]-NH2) | b (No detectable activity up to 5 μg/well) |
| CC[C@H](C)[C@H](NC(=O)[C@H](CC(C)C)NC(=O)[C@H](Cc1ccc(N)cc1)NC(=O)[C@H](CCCCN)NC(=O)[C@@H](N)CCCCN)C(=O)N[C@@H](CCC(N)=O)C(=O)N[C@@H](CC(C)C)C(=O)N[C@@H](CCCCN)C(=O)N[C@@H](CCCCN)C(N)=O [XMP.346] (H-KK[Phe(4-NH2)]LIQLKK-NH2) | 640 pmol/30 mm^2 zone |
| Ac-PWLIQLFHKK-OH [XMP.354] | 6,361 pmol/30 mm^2 zone |
| H-ASKVGWLIQLFHKK-NH2 [XMP.31] | 426 pmol/30 mm^2 zone |
| H-GWLIQLFHKKIESALRNKMNS-NH2 [XMP.55] | >2666 pmol/30 mm^2 zone |
| H-IQLFHK-NH2 [XMP.318] | b (No detectable activity up to 5 μg/well) |
| H-IQLFHKK-NH2 [XMP.311] | b (No detectable activity up to 5 μg/well) |
| H-KAKVGWLIQLFHKK-NH2 [XMP.32] | 294 pmol/30 mm^2 zone |
| H-KKKWLIQLKKK-NH2 [XMP.350] | 129 pmol/30 mm^2 zone |
| H-KKWLIQL-NH2 [XMP.325] | 4,135 pmol/30 mm^2 zone |
| H-KSAVGWLIQLFHKK-NH2 [XMP.33] | 603 pmol/30 mm^2 zone |
| H-KSKAGWLIQLFHKK-NH2 [XMP.34] | 319 pmol/30 mm^2 zone |
| H-KSKVAWLIQLFHKK-NH2 [XMP.35] | 442 pmol/30 mm^2 zone |
| H-KSKVFWLIQLFHKK-NH2 [XMP.95] | >1398 pmol/30 mm^2 zone |
| H-KSKVGGLIQLFHKK-NH2 [XMP.249] | 1,242 pmol/30 mm^2 zone |

same assay, conditions: pmoles of peptide added to well to achieve a 30 mm^2 zone, PROBIT analysis; crude or purified (P′) peptide; listed as XMP.293P′

| Molecule | C. albicans pmol/30 mm^2 zone [pmol/30 mm^2 zone] |
| --- | --- |
| CC[C@H](C)[C@H](NC(=O)[C@H](CC(C)C)NC(=O)[C@H](Cc1c[nH]c2ccccc12)NC(=O)[C@@H](N)CCCCN)C(=O)N[C@@H](CCC(N)=O)C(=O)N[C@@H](CC(C)C)C(=O)N[C@@H](Cc1ccccc1)C(=O)N[C@@H](Cc1c[nH]cn1)C(=O)N[C@@H](CCCCN)C(=O)N[C@@H](CCCCN)C(N)=O [XMP.293] | 215 |

same assay, conditions: pmoles of peptide added to well to achieve a 30 mm^2 zone, PROBIT analysis; crude or purified (P′) peptide; listed as XMP.297P′

| Molecule | C. albicans pmol/30 mm^2 zone [pmol/30 mm^2 zone] |
| --- | --- |
| CC[C@H](C)[C@H](NC(=O)[C@H](CC(C)C)NC(=O)[C@H](Cc1c[nH]c2ccccc12)NC(=O)[C@@H](N)CCCCN)C(=O)N[C@@H](CCC(N)=O)C(=O)N[C@@H](CC(C)C)C(=O)N[C@@H](Cc1ccccc1)C(=O)N[C@@H](Cc1c[nH]cn1)C(=O)N[C@@H](CCCCN)C(N)=O [XMP.297] | 564 |

same assay, conditions: pmoles of peptide added to well to achieve a 30 mm^2 zone, PROBIT analysis; crude or purified (P′) peptide; listed as XMP.298P′

| Molecule | C. albicans pmol/30 mm^2 zone |
| --- | --- |
| CC[C@H](C)[C@H](NC(=O)[C@H](CC(C)C)NC(=O)[C@@H](N)Cc1c[nH]c2ccccc12)C(=O)N[C@@H](CCC(N)=O)C(=O)N[C@@H](CC(C)C)C(=O)N[C@@H](Cc1ccccc1)C(=O)N[C@@H](Cc1c[nH]cn1)C(=O)N[C@@H](CCCCN)C(=O)N[C@@H](CCCCN)C(N)=O [XMP.298] | 1,106 pmol/30 mm^2 zone |

same assay, conditions: pmoles of peptide added to well to achieve a 30 mm^2 zone, PROBIT analysis; crude or purified (P′) peptide; listed as XMP.303P′

| Molecule | C. albicans pmol/30 mm^2 zone |
| --- | --- |
| CC[C@H](C)[C@H](NC(=O)[C@H](CC(C)C)NC(=O)[C@@H](N)Cc1c[nH]c2ccccc12)C(=O)N[C@@H](CCC(N)=O)C(=O)N[C@@H](CC(C)C)C(=O)N[C@@H](Cc1ccccc1)C(=O)N[C@@H](Cc1c[nH]cn1)C(=O)N[C@@H](CCCCN)C(N)=O [XMP.303] | 1,307 pmol/30 mm^2 zone |

same assay, conditions: pmoles of peptide added to well to achieve a 30 mm^2 zone, PROBIT analysis; crude or purified (P′) peptide; listed as XMP.339P′

| Molecule | C. albicans pmol/30 mm^2 zone |
| --- | --- |
| CC[C@H](C)[C@H](NC(=O)[C@H](CC(C)C)NC(=O)[C@H](Cc1c[nH]c2ccccc12)NC(=O)[C@H](CCN)NC(=O)[C@@H](N)CCN)C(=O)N[C@@H](CCC(N)=O)C(=O)N[C@@H](CC(C)C)C(=O)N[C@@H](CCN)C(=O)N[C@@H](CCN)C(N)=O [XMP.339] (H-[Dab][Dab]WLIQL[Dab][Dab]-NH2) | 2,599 pmol/30 mm^2 zone |
